This data set is described as follows: recombinant barcode read abundance after kanamycin selection (control-corrected) (log10(CPM+1)); higher = more efficient recombination; sequences stand for … in AGTGCAGAGAAAATCGGCCAGTTTTCTCTGCCTGCAGTCCGCATGCCGT…AGATTTATGCAGCGGACTGCCTTTCTCCCAAAGTGATAAACCGGACAGTATCATGGACCGGTTTTCCCGGTAATCCGTATTTGCAAGGTTGGTTTCACT; site = the 11-nt target. The method in brief: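 A vector carrying a T7-inducible recombinase and the last 73 bp of the bridge RNA received, by Gibson cloning, oligos encoding a promoter, target, barcode and the first 104 bridge RNA bases under J23119. The pooled constructs entered E. coli together with a donor plasmid by electroporation. Selection used chloramphenicol/ampicillin/kanamycin with 0.1 mM IPTG, with chloramphenicol/ampicillin LB agar as the control, each in two replicates. Recombination efficiency is the averaged, control-corrected counts-per-million of barcodes at recombinant junctions, reported as log10(CPM+1).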
As to “GTTTGATCTTGGGTTCTAACCTGTTGCCT (site GTTTGTTCTAG)”, the “recombinant barcode read abundance (log10)” value came to 0. Next, “GTTTGCCCTTGGGTTCTAACCTGTTGCTT (site GTTTGACCTAA)”: 0.0376; “GTTTGCCCTTGGGTTCTAACCTGTTGCTT (site GTTTGCCCTAA)”: 0.0681; “GTTTGCCCTTGGGTTCTAACCTGTTGCTT (site GTTTGGCCTAA)”: 0.0442. Next, “GTTTGCCCTTGGGTTCTAACCTGTTGCTT (site GTTTGTCCTAA)”: 0.164. As for “GTTTGCTCTTGGGTTCTAACCTGTTGCCT (site GTTTGATCTAG)”, the “recombinant barcode read abundance (log10)” value was determined as 0.0882. Turning to “GTTTGCTCTTGGGTTCTAACCTGTTGCCT (site GTTTGCTCTAG)”, the “recombinant barcode read abundance (log10)” value was 0.635. On to “GTTTGCTCTTGGGTTCTAACCTGTTGCCT (site GTTTGGTCTAG)”, for which the “recombinant barcode read abundance (log10)” value is 0.416. Consider “GTTTGCTCTTGGGTTCTAACCTGTTGCCT (site GTTTGTTCTAG)”, for which the “recombinant barcode read abundance (log10)” value stood at 0.115. Next, “GTTTGTCCTTGGGTTCTAACCTGTTGCTT (site GTTTGACCTAA)”: 0.178; “GTTTGTCCTTGGGTTCTAACCTGTTGCTT (site GTTTGCCCTAA)”: 0.0342. Turning to “GTTTGTCCTTGGGTTCTAACCTGTTGCTT (site GTTTGGCCTAA)”, the “recombinant barcode read abundance (log10)” value amounted to 0.644. With “GTTTGTCCTTGGGTTCTAACCTGTTGCTT (site GTTTGTCCTAA)”, the “recombinant barcode read abundance (log10)” value came to 0.048. “TAAAGGCCTTGGGTTCTAACCTGTTGCTA (site CAAAGGTCTTA)”: the “recombinant barcode read abundance (log10)” value was 0.218. Under “TAAAGGCCTTGGGTTCTAACCTGTTGCTA (site TAAAGGCCTTA)” stands 0.159. As for “TAAAGGGCTTGGGTTCTAACCTGTTGCCT (site TAAAGGGCTAG)”, the “recombinant barcode read abundance (log10)” value stood at 0.4. Turning to “TAAAGGGCTTGGGTTCTAACCTGTTGCCT (site TAACGGGCTCG)”, the “recombinant barcode read abundance (log10)” value came out at 0.0341.

For the sequence “TAAATAGCTTGGGTTCTAACCTGTTGCCT (site TAAATAGCTAG)”, the “recombinant barcode read abundance (log10)” value stood at 0.881. As for “TAAATAGCTTGGGTTCTAACCTGTTGCCT (site TAATTAGCTAG)”, the “recombinant barcode read abundance (log10)” value stood at 0.243. Under “TAAATCCCTTGGGTTCTAACCTGTTGCGA (site ACGGAATCTCG)” stands 0.0648; under “TAAATCCCTTGGGTTCTAACCTGTTGCGA (site TAAATCCCTTC)”, 1.22; under “TAACATACTTGGGTTCTAACCTGTTGCAT (site TAACATACTAT)”, 1.22. “TAACATACTTGGGTTCTAACCTGTTGCAT (site TAACCTACTAT)”: the “recombinant barcode read abundance (log10)” value came to 0.139. “TAACATACTTGGGTTCTAACCTGTTGCAT (site TAACGTACTAT)”: the “recombinant barcode read abundance (log10)” value worked out at 0.233.

For “TAACATACTTGGGTTCTAACCTGTTGCAT (site TAACTTACTAT)”, the “recombinant barcode read abundance (log10)” value was 0.0391. Under “TAACCATCTTGGGTTCTAACCTGTTGCCT (site TAACCATCTAG)” stands 0.266; under “TAACCATCTTGGGTTCTAACCTGTTGCCT (site TACCCATCTAG)”, 0.0574. Consider “TAACCATCTTGGGTTCTAACCTGTTGCCT (site TAGCCATCTAG)”, for which the “recombinant barcode read abundance (log10)” value worked out at 0.0156. Turning to “TAACCATCTTGGGTTCTAACCTGTTGCCT (site TATCCATCTAG)”, the “recombinant barcode read abundance (log10)” value came out at 0.0811.

For the sequence “TAACCTGCTTGGGTTCTAACCTGTTGCCT (site TAACCTACTAG)”, the “recombinant barcode read abundance (log10)” value was 0.532. With “TAACCTGCTTGGGTTCTAACCTGTTGCCT (site TAACCTCCTAG)”, the “recombinant barcode read abundance (log10)” value came to 0.0336. In the case of “TAACCTGCTTGGGTTCTAACCTGTTGCCT (site TAACCTGCTAG)”, the “recombinant barcode read abundance (log10)” value worked out at 0.889.

Source of the values: the supplement of paper PMC11208160.
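Note: IS621 recombinase and bridge RNA in Escherichia coli cells.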
